Results published in paper PMC4405350, “From Broad-Spectrum Biocides to Quorum Sensing Disruptors and Mussel Repellents: Antifouling Profile of Alkyl Triphenylphosphonium Salts” (PLoS ONE, 2015).

Legend:
Fusarium sp. = assay: Marine-derived fungi growth inhibition (OD405); format: cell-based; details: Fusarium, 120 h, 5 days, 26 °C
Experimental: All the biological assays were run by triplicate.
(§1) Three strains of marine-derived fungi were kindly provided by Dr. Á. Trigos (University of Veracruz, Mexico). The strains were isolated from reef organisms collected from the Veracruz Reef System and identified as Aspergillus sp., Fusarium sp. and Alternaria sp..
(§2) Fungal strains were cultured in Potato-Dextrose Agar (PDA) supplemented with filtered seawater (FSW) (50% v/v) at 26 °C for 5 days prior to experiments. […] Briefly, fungal inocula were prepared by addition of 5 ml of sterile saline solution to the cultures. Gently swabbing released conidia. […] The plates were incubated for 5 days at 26 °C. The calculation of the half-maximal inhibitory concentrations (IC50) was performed using OD405 as endpoint.

Artemia salina nauplii = assay: in vivo; details: instar I nauplii, 24 h, 28 °C
Experimental: (§3) All the biological assays were run by triplicate. […] For the active products, serial dilutions were performed to calculate the half-maximal inhibitory concentrations (IC50) or the minimal inhibitory concentrations (MIC). Unless otherwise stated, the test concentrations were 100, 50, 25, 10, 5, 2.5, 1, 0.5 and 0.1 μM. Dose-response curves were adjusted with GraphPad Prism 5 software using a four-parameter non-linear regression model.
Artemia salina cysts (INVE Aquaculture, Ghent, Belgium) were hatched in brackish water (30 ‰ salinity) at 28 °C with aeration and under constant light. Newly hatched instar I nauplii were harvested for bioassays. Tests were conducted in 96-well plates (15±5 nauplii per well, test volume = 200 μl). The number of dead and alive individuals was recorded after 24 h of incubation at 28 °C and 24-hour photoperiod.

C. violaceum CVO26 = C. violaceum CVO26 growth inhibition (OD625); format: cell-based; details: Chromobacterium violaceum, CVO26, 18 h, read-out: IC50 (Growth inhibition)
Experimental: The reporter strain C. violaceum CVO26 (CECT 5999) was used to screen the ability of the products to interfere with violacein production, a QS-regulated phenotype. C. violaceum CVO26 is a mini-Tn5 mutant that depends on an exogenous source of autoinducer (AI) (N-hexanoyl homoserine lactone, HHL) for violacein production. C. violaceum CVO26 was cultured in LB broth (Sigma-Aldrich) supplemented with 25 μg ml^-1 kanamycin. Inocula were prepared by dilution (1:100) of an overnight culture of the reporter strain [49]. One hundred microliters of inoculum with HHL (Sigma-Aldrich, 6 μM) or without the AI were added to 96-well plates containing 100 μl of the appropriate dilutions of the test products in LB. Thus, two sets of plates were prepared. One set of plates (without HHL) was used to evaluate the effect of the products on bacterial growth, whereas the other set of plates (with HHL) was used to evaluate their effect on violacein production. Both sets of plates were incubated at 30 °C with agitation (150 rpm) for 18 h.
Growth inhibition was quantified in the first batch of plates by re-suspending bacterial pellets and measuring the OD625. From the second batch of plates violacein was extracted and quantified. Briefly, the plates were dried overnight (60 °C) and violacein was re-solubilized by the addition of 200 μl of DMSO. The plates were shaken for 3 h and then the OD590 was determined.
Indeed, the inhibitions observed in violacein production for long alkyl chains (10–18, 20) were clearly correlated to the biocidal effect exerted by these compounds, with ‘therapeutic ratios’ (IC50 for growth inhibition/IC50 for violacein inhibition) around 1, in general (Table 2). Note that, as the length of the hydrocarbon chain becomes shorter, this ratio increased (8–9). […] To evaluate these compounds in further detail, […] stock solutions were prepared […] to avoid the use of high concentrations of DMSO in the bioassays. […] Serial two-fold dilutions (500–3.9 μM) were assayed. Consequently, the highest amount of DMSO used in the assay was 0.25% (v/v). […] Growth inhibitory effects are only observed at 500 μM, particularly for compound 7 (Fig 6D).

Amphora sp. = assay: Benthic diatom growth inhibition (chlorophyll-a); format: cell-based; details: 120 h; growth, 5 days, chlorophyll-a; read-out: IC50 Amphora sp.
Experimental: as §3
(§4) Five strains of benthic diatoms, Nitszchia sp. […] The Nitzschia and Navicula strains were purchased from the Spanish Bank of Algae (Marine Biotechnology Center, University of Las Palmas de Gran Canaria). The other three strains were kindly provided by Dr. G. Courtois (University of Las Palmas de Gran Canaria). Diatoms were cultured at 19±1 °C in Erlenmeyer flaks (250 ml) containing 150 ml of Guillard’s F/2 medium, and subjected to a photoperiod of 18:6. Tests were run in 48-well plates. Inocula were prepared by adjusting diatom concentration to 2–4 × 10^6 cells ml^-1 using a Neubauer chamber. Test products were dissolved in F/2 medium (500 μl) to which diatom inocula (500 μl) were added. Thus, the final assay volume was 1 ml and the starting cell densities were ca. 1–2 x 10^6 diatoms ml^-1. Plates were incubated under the abovementioned conditions for 5 days and then chlorophyll-a (Chla) was quantified.
(§5) In order to extract Chla, the content of each well was transferred to a microcentrifuge tube and centrifuged at 10,000 rpm for 10 min. The supernatants were discarded and 200 μl of DMSO were added to the pellets. The tubes were incubated at 65 °C for 2 h in total darkness and vortexed every 30 min. Then, the content of each tube was transferred to a 96-well plate and the amount of Chla was determined spectrophotometrically. Path length correction factor for the DMSO extracts was determined.

Nitzschia sp. = assay: Benthic diatom growth inhibition (chlorophyll-a); format: cell-based; details: 120 h; growth, 5 days, chlorophyll-a; read-out: IC50 Nitzschia sp.
Experimental: as §3, §4, §5

[1] = system: Phaeodactylum tricornutum; assay: Benthic diatom growth inhibition (chlorophyll-a); format: cell-based; details: Phaeodactylum tricornutum, 120 h; growth, 5 days, chlorophyll-a; read-out: IC50 P. tricornutum
Experimental: as §3, §4, §5

Cylindrotheca sp. = assay: Benthic diatom growth inhibition (chlorophyll-a); format: cell-based; details: 120 h; growth, 5 days, chlorophyll-a; read-out: IC50 Cylindrotheca sp.
Experimental: as §3, §4, §5

[2] = system: Navicula cf. salinicola BEA 0055; assay: Benthic diatom growth inhibition (chlorophyll-a); format: cell-based; details: 120 h; growth, 5 days, chlorophyll-a; read-out: IC50 Navicula cf. salinicola
Experimental: as §3, §4, §5

Aspergillus sp. = assay: Marine-derived fungi growth inhibition (OD405); format: cell-based; details: Aspergillus, 120 h; growth inhibition, 5 days, 26 °C; read-out: IC50 Aspergillus sp.
Experimental: as §3, §1, §2

Alternaria sp. = assay: Marine-derived fungi growth inhibition (OD405); format: cell-based; details: Alternaria, 120 h; growth inhibition, 5 days, 26 °C; read-out: IC50 Alternaria sp.
Experimental: as §3, §1, §2

Structure (SMILES)	IC50 (Fusarium sp.)	IC50 A. salina (LC50) (Artemia salina nauplii)	IC50 (C. violaceum CVO26)	IC50 (Amphora sp.)	IC50 (Nitzschia sp.)	IC50 [1]	IC50 (Cylindrotheca sp.)	IC50 [2]	IC50 (Aspergillus sp.)	IC50 (Alternaria sp.)
CCCCCCCCCCCCCCCC[P+](c1ccccc1)(c1ccccc1)c1ccccc1 [Compound 16]	9.3 µM	1.8 µM	3.2 µM	2600 nM	4.9 µM	1.3 µM	4.7 µM	1300 nM	5.2 µM	1400 nM
CCCCCCCCCCCCCCCCCC[P+](c1ccccc1)(c1ccccc1)c1ccccc1 [Compound 17]	8.8 µM	<0.5 µM	7 µM	4200 nM	7.6 µM	7.4 µM	8 µM	1200 nM	10.2 µM	1300 nM
CCCCCCCCCCCCCCCCCCC[P+](c1ccccc1)(c1ccccc1)c1ccccc1 [Compound 18]	7.3 µM	<0.5 µM	40.1 µM	3400 nM	4.8 µM	16.9 µM	6.9 µM	800 nM	19.6 µM	5300 nM
c1ccc([P+](CCCCCCCCCCCC[P+](c2ccccc2)(c2ccccc2)c2ccccc2)(c2ccccc2)c2ccccc2)cc1 [Compound 20]	5.6 µM	3.0 µM	12.8 µM	1600 nM	2 µM	1 µM	1.3 µM	600 nM	0.6 µM	300 nM
